According to patent publication US20250296938A1, “Compounds that Interact with the Ras Superfamily for the Treatment of Cancers, Inflammatory Diseases, Rasopathies, and Fibrotic Disease” (SHY Therapeutics, LLC, priority 2018, published 2025):

Legend:
MAPK phosphorylation = experiment: MAPK cell-based phosphorylation assay (ELISA or Western), PANC-1; settings: Homo sapiens, 10 μM
Experimental: Cell lines: Tumor-derived pancreatic cancer cell line PANC-1 was purchased from ATCC and were and grown in DMEM-High Glucose supplemented with penicillin (100 U/mL), streptomycin (100 μg/mL), and 10% heat-inactivated FBS at 37° C. in a humidified incubator with 5% CO2.
Method: Cells were plated at 7500 cells/well density in a 96-well plate, allowed 3 hours to adhere to the plate, then starved in DMEM plus 0.5% FBS overnight. The small molecules to be tested were added to the cells in the final concentration of 10 μM in the presence of 0.3% DMSO for 6 hours incubation at 37° C. For IC50 value determination, serial dilutions of compounds were added to cells under the same conditions. Next, cells were stimulated with 1.5 ng/mL EGF for 15 minutes followed by cell fixation with 4% formaldehyde in PBS at room temperature for 20 minutes. Cell-direct ELISA determined phosphorylation level of MAPK.
Cell-direct ELISA: For each well, cells were permeabilized with 0.1% PBS-Triton X-100, quenched with 0.06% H2O2 in 0.1% PBS-Triton X-100, and probed with anti-phospho-MAPK antibodies (R&D Systems) followed by HRP-conjugated secondary antibody (Jackson Immunoresearch, West Grove, PA). Next, a 50 μM solution of the fluorescent substrate AmpliFlu Red (Sigma) was added and incubated at RT for 20 minutes. At the end of the incubation time, phosphorylation level of MAPK was determined by measuring fluorescence at 595 nm using SpectraMax M3 plate reader (Molecular Devices).
Cell lines: Human NSCLC cells NCI-H1975 and NCI-H1299, and tumor-derived pancreatic cancer cell lines Panc-1, MIA-PaCa-2, and BxPC3, were all purchased from American Type Culture Collection and grown in complete RPMI medium (BxPC3, NCI-H1975 and NCI-H1299) or DMEM-High Glucose (Panc1 and MIA-PaCa-2), supplemented with penicillin (100 U/mL), streptomycin (100 μg/mL), and 10% heat-inactivated FBS at 37° C. in a humidified incubator with 5% CO2.
(§1) Method: Cells were plated at 350000 cells/well density in a 12-well plate, allowed 3 hours to adhere to the plate, then starved in the appropriate medium in the presence of 0.5% FBS overnight. The small molecules to be tested were added to the cells in the final concentration of 10 μM in the presence of 0.3% DMSO for 6 hours incubation at 37° C. For IC50 value determination, serial dilutions of compounds were added to cells under the same conditions. Next, cells were stimulated with 1.5 ng/ml EGF for 15 minutes then cells were lysed with lysis buffer containing 1% Triton X-100, EDTA, and Halt™ Protease & Phosphatase Inhibitor Cocktail (Thermo Scientific). Protein concentration was assessed by BCA protein assay (Thermo Scientific). Phosphorylation level of MAPK was determined by western blot.
(§2) Western blot protocol: Equal amounts of protein (15-50 μg) were separated by SDS-PAGE and transferred to nitrocellulose membranes (Invitrogen by Thermo Fisher Scientific). The membrane was stained with Ponceau S Stain (Boston BioProducts) to verify uniform protein loading. Membranes were blocked with 10% milk and phosphorylation levels of MAPK were assessed by incubating overnight at 4° C. with anti-phospho-p44/42 (Thr202/Tyr204) antibody (Cell Signaling) followed by HRP-conjugated secondary antibody (Jackson Immunoresearch, West Grove, PA). Bands were incubated in Amersham ECL Prime Western Blotting Detection Reagent (GE Healthcare) and visualized using the ChemiDoc MP imaging system (Bio-Rad).

AKT phosphorylation = experiment: Western AKT cell-based phosphorylation assay, PANC-1; settings: Homo sapiens
Experimental: Human tumor-derived pancreatic cancer cell line Panc-1 was purchased from American Type Culture Collection and grown in complete DMEM-High Glucose supplemented with penicillin (100 U/mL), streptomycin (100 μg/mL), and 10% heat-inactivated FBS at 37° C. in a humidified incubator with 5% CO2.
as §1, with “C.” for “C. For IC50 value determination, serial dilutions of compounds were added to cells under the same conditions.”, “Akt” for “MAPK”
as §2, with “Akt” for “MAPK”, “anti-phospho-Akt (Ser473)” for “anti-phospho-p44/42 (Thr202/Tyr204)”

[1] = 6 hours, EGF stimulation, PANC-1

Structure (SMILES): O=C(c1nc(-c2ccccn2)nc(O)c1O)N1CCOCC1 [drawing 453]
- inhibition at 10 µM (MAPK phosphorylation; [1]): 0%
- inhibition at 10 µM (AKT phosphorylation; [1]): 0%

Structure (SMILES): COc1c(O)nc(-c2ccccn2)nc1Oc1ccc2ncccc2c1 [drawing 446]
- inhibition at 10 µM (MAPK phosphorylation; [1]): 0%
- inhibition at 10 µM (AKT phosphorylation; [1]): 0%

Structure (SMILES): COc1cccc(Oc2nc(-c3ccccn3)nc(O)c2OC)c1 [drawing 448]
- inhibition at 10 µM (MAPK phosphorylation; [1]): 0%
- inhibition at 10 µM (AKT phosphorylation; [1]): 0%

Structure (SMILES): O=C(NC1CCC1)c1nc(-c2ccccn2)nc(O)c1O [drawing 461]
- inhibition at 10 µM (MAPK phosphorylation; [1]): 0%
- inhibition at 10 µM (AKT phosphorylation; [1]): 0%

Structure (SMILES): COCCn1cc(-c2sc3nc(-c4nccn4C)nc(N4CCC(OC)C4)c3c2-c2ccccc2)cn1 (stereo not drawn) [drawing 433]
- inhibition at 10 µM (MAPK phosphorylation; [1]): 51 to 75%
- inhibition at 10 µM (AKT phosphorylation; [1]): 0%

Structure (SMILES): COc1ccc(-c2sc3nc(-c4nccn4C)nc(N4CCC(OC)C4)c3c2-c2ccccc2)cn1 (stereo not drawn) [drawing 430]
- inhibition at 10 µM (MAPK phosphorylation; [1]): 1 to 25%
- inhibition at 10 µM (AKT phosphorylation; [1]): 0%

Structure (SMILES): CO[C@H]1C[C@@H](Nc2nc(-c3nccn3C)nc3sc(C(=O)NC(C)C)c(-c4ccccc4)c23)C1 [drawing 520]
- inhibition at 10 µM (MAPK phosphorylation; PANC-1 (Table 4C)): 0%
- inhibition at 10 µM (AKT phosphorylation; PANC-1 (Table 4C)): 0%

Structure (SMILES): Cn1ccc(-c2sc3nc(-c4nccn4C)nc(N[C@H]4C[C@@H](O)C4)c3c2-c2ccccc2)n1 [drawing 508]
- inhibition at 10 µM (MAPK phosphorylation; PANC-1 (Table 4C)): 1 to 25%
- inhibition at 10 µM (AKT phosphorylation; PANC-1 (Table 4C)): 0%

Structure (SMILES): CCOc1cccc(Nc2nc(-c3ccccn3)nc(O)c2OC)c1 [drawing 482]
- inhibition at 10 µM (MAPK phosphorylation; PANC-1 (Table 4C)): 0%
- inhibition at 10 µM (AKT phosphorylation; PANC-1 (Table 4C)): 0%

Structure (SMILES): CO[C@H]1CC[C@@H](Nc2nc(-c3nccn3C)nc3sc(-c4ccn(C)n4)c(C)c23)C1 [drawing 515]
- inhibition at 10 µM (MAPK phosphorylation; PANC-1 (Table 4C)): 0%
- inhibition at 10 µM (AKT phosphorylation; PANC-1 (Table 4C)): 0%

Structure (SMILES): COCCn1ccnc1-c1nc(O)c2scc(-c3ccccn3)c2n1 [drawing 390]
- inhibition at 10 µM (MAPK phosphorylation; [1]): 51 to 75%
- inhibition at 10 µM (AKT phosphorylation; [1]): 0%

Structure (SMILES): CO[C@H]1CC[C@@H](Nc2nc(-c3nccn3C)nc3sc(-c4cccc5[nH]ncc45)c(C)c23)C1
- inhibition at 10 µM (MAPK phosphorylation; PANC-1 (Table 4C)): 76 to 100%
- inhibition at 10 µM (AKT phosphorylation; PANC-1 (Table 4C)): 0%

Structure (SMILES): COc1c(O)nc(-c2ccccn2)nc1Oc1ccccc1 [drawing 451]
- inhibition at 10 µM (MAPK phosphorylation; [1]): 0%
- inhibition at 10 µM (AKT phosphorylation; [1]): 0%

Structure (SMILES): COC1CCC(Nc2nc(-c3nccn3C)nc3sc(-c4cccc(O)c4F)c(-c4ccccc4)c23)C1 (stereo not drawn) [drawing 485]
- inhibition at 10 µM (MAPK phosphorylation; PANC-1 (Table 4C)): 76 to 100%
- inhibition at 10 µM (AKT phosphorylation; PANC-1 (Table 4C)): 0%

Structure (SMILES): CO[C@H]1C[C@@H](Nc2nc(-c3nccn3C)nc3sccc23)C1 [drawing 503]
- inhibition at 10 µM (MAPK phosphorylation; PANC-1 (Table 4C)): 1 to 25%
- inhibition at 10 µM (AKT phosphorylation; PANC-1 (Table 4C)): 0%

Structure (SMILES): COc1cccc(Cn2ccnc2-c2nc(O)c3scc(-c4ccc(OCC(C)C)nc4)c3n2)c1 [drawing 500]
- inhibition at 10 µM (MAPK phosphorylation; PANC-1 (Table 4C)): 76 to 100%
- inhibition at 10 µM (AKT phosphorylation; PANC-1 (Table 4C)): 0%

Structure (SMILES): CO[C@H]1C[C@@H](Nc2nc(-c3nccn3C)nc3sc(-c4ccn(C)n4)c(C)c23)C1 [drawing 514]
- inhibition at 10 µM (MAPK phosphorylation; PANC-1 (Table 4C)): 76 to 100%
- inhibition at 10 µM (AKT phosphorylation; PANC-1 (Table 4C)): 0%

Structure (SMILES): COc1cc(-c2sc3nc(-c4nccn4C)nc(N4CCC(OC)C4)c3c2-c2ccccc2)ccn1 (stereo not drawn) [drawing 427]
- inhibition at 10 µM (MAPK phosphorylation; [1]): 51 to 75%
- inhibition at 10 µM (AKT phosphorylation; [1]): 0%

Structure (SMILES): Oc1nc(-c2cn3cccnc3n2)nc2c(-c3ccccn3)csc12 [drawing 397]
- inhibition at 10 µM (MAPK phosphorylation; [1]): 0%
- inhibition at 10 µM (AKT phosphorylation; [1]): 0%

Structure (SMILES): Cc1cc(Cn2ccnc2-c2nc(O)c3scc(-c4ccccn4)c3n2)on1 [drawing 391]
- inhibition at 10 µM (MAPK phosphorylation; [1]): 0%
- inhibition at 10 µM (AKT phosphorylation; [1]): 0%

Structure (SMILES): Oc1nc(-c2cn(-c3ccccc3)cn2)nc2c(-c3ccccn3)csc12 [drawing 398]
- inhibition at 10 µM (MAPK phosphorylation; [1]): 0%
- inhibition at 10 µM (AKT phosphorylation; [1]): 0%
